System: tobacco budworm (Heliothis virescens)
Assay: Test H: soil systemic control of tobacco budworm on cotton
Type: in vivo
Conditions: soil treatment at 10 ppm
Procedure: For evaluating soil systemic control of tobacco budworm (Heliothis virescens), cotton plants were grown in sassafras soil in 15-cm pots in aluminum trays. When the plants reached square stage (bud formation on the plant) the plants were treated with the test compounds.
Test compounds were formulated in 0.25 mL of acetone and then diluted with water to provide solutions of 1, 5, 10 and 50 ppm. 10 mL of the treatment solutions were added to the pots weekly for four weeks, with four replicates of each treatment rate. One day after the second, third and fourth treatments, 35-50 first instar Heliothis virescens larvae were brushed on each plant with paintbrushes and placed on the terminal area, squares, and bolls. Five days after the last infestation with larvae the plants were rated for damage. Of the compounds tested, the following provided excellent levels of plant protection at 10 ppm (10% or less feeding damage): 16.

## Cc1cc(Br)cc(C(=O)NC(C)C)c1NC(=O)c1cc(Br)nn1-c1ncccc1Cl [Compound 16]
  protection of squares and bolls: no feeding or minimal sepal damage
10 mL weekly for four weeks, rated five days after last infestation
  feeding damage (excellent levels of plant protection): ≤ 10%

Reference: patent US9084422B2, “Anthranilamides compositions” (E I DU PONT DE NEMOURS AND COMPANY, priority 2001, dated 2015)
